Laboratory results as given in US20090023721A1, “Novel Substituted Tetracyclic Tetrahydrofuran, Pyrrolidine and Tetrahydrothiophene Derivatives and Their Use as a Medicament” (priority 2005, published 2009).
pIC50: −log10 of the molar value. Where two headings read alike, the source gives them in different places.

Experiments:
[1] = target: T1, human cloned 5-HT2A receptor, expressed in L929 cells (Homo sapiens, UniProt P28223); test: In vitro radioligand binding affinity for 5-HT2A receptor ([125I]R91150); settings: for IC50: read-out: h-5HT2A (converted)
T1 construct: expressed in transfected cells; host or cells: L929 cells
T1 sequence (P28223 whole entry): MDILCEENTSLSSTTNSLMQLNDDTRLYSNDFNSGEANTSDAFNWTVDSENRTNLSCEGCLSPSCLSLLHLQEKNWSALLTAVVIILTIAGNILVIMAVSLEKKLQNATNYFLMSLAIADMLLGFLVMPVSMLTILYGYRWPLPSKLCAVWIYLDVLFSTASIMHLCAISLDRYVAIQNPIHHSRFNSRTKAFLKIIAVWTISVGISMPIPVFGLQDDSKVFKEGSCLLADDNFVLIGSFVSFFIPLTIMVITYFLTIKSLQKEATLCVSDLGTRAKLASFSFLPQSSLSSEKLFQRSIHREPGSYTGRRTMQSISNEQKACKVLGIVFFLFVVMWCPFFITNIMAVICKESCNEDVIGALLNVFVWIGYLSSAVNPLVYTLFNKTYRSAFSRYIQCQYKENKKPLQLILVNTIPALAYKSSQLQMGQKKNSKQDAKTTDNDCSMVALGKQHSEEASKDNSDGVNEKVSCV
Procedure: The interaction of the compounds of Formula (I) with 5-HT2A and 5-HT2C receptors was assessed in in vitro radioligand binding experiments. In general, a low concentration of a radioligand with a high binding affinity for the receptor is incubated with a sample of a tissue preparation enriched in a particular receptor (1 to 5 mg tissue) in a buffered medium (0.2 to 5 ml). During the incubation, the radioligands bind to the receptor. When equilibrium of binding is reached, the receptor bound radioactivity is separated from the non-bound radioactivity, and the receptor bound activity is counted. The interaction of the test compounds with the receptors is assessed in competition binding experiments. Various concentrations of the test compound are added to the incubation mixture containing the tissue preparation and the radioligand. Binding of the radioligand will be inhibited by the test compound in proportion to its binding affinity and its concentration. The affinities of the compounds for the 5-HT2 receptors were measured by means of radioligand binding studies conducted with: (a) human cloned 5-HT2A receptor, expressed in L929 cells using [^125I]R91150 as radioligand and (b) human cloned 5-HT2C receptor, expressed in CHO cells using [^3H]mesulergine as radioligand.

[2] = target: T2, human cloned 5-HT2C receptor, expressed in CHO cells (Homo sapiens, UniProt P28335); test: In vitro radioligand binding affinity for 5-HT2C receptor ([3H]mesulergine); settings: for IC50: read-out: h-5HT2C (converted)
T2 construct: expressed in transfected cells; host or cells: CHO cells
T2 sequence (P28335 33-458): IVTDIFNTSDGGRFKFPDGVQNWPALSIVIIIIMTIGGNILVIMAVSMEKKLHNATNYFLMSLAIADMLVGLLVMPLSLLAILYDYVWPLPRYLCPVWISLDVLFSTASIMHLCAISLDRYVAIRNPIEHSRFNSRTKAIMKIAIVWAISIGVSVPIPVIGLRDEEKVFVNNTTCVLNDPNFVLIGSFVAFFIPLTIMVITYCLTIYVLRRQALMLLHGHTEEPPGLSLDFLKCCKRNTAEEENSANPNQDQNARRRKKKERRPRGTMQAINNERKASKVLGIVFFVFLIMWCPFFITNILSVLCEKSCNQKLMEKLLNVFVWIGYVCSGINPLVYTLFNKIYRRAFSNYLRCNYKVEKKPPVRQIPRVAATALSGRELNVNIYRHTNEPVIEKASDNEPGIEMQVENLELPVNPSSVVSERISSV
Procedure: The interaction of the compounds of Formula (I) with 5-HT2A and 5-HT2C receptors was assessed in in vitro radioligand binding experiments. […] During the incubation, the radioligands bind to the receptor. When equilibrium of binding is reached, the receptor bound radioactivity is separated from the non-bound radioactivity, and the receptor bound activity is counted. The interaction of the test compounds with the receptors is assessed in competition binding experiments. Various concentrations of the test compound are added to the incubation mixture containing the tissue preparation and the radioligand. Binding of the radioligand will be inhibited by the test compound in proportion to its binding affinity and its concentration.

[3] = target: T3, human Dopamine D2L receptor (Homo sapiens, UniProt P14416); test: In vitro binding affinity for human D2L receptor ([3H]Spiperone); settings: human D2L receptor-transfected CHO cell membranes, [3H]Spiperone; for IC50: read-out: h-D2L (converted)
T3 construct: expressed in transfected cells; host or cells: CHO cells (frozen membranes)
T3 sequence (P14416 whole entry): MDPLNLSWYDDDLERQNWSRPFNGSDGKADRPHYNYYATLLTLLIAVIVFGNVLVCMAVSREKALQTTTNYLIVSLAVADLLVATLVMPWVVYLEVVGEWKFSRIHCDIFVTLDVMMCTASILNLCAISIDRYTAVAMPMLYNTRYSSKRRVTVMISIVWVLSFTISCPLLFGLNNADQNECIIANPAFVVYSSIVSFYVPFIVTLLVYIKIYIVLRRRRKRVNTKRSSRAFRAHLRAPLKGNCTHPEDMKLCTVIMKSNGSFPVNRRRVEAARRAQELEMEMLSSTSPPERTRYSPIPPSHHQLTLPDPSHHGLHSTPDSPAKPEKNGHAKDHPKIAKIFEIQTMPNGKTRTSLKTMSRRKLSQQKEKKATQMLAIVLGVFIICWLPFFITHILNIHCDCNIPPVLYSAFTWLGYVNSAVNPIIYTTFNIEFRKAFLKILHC
Procedure: Frozen membranes of human Dopamine D2L receptor-transfected CHO cells were thawed, briefly homogenised using an Ultra-Turrax T25 homogeniser and diluted in Tris-HCl assay buffer containing NaCl, CaCl2, MgCl2, KCl (50, 120, 2, 1, and 5 mM respectively, adjusted to pH 7.7 with HCl) to an appropriate protein concentration optimised for specific and non-specific binding. Radioligand [^3H]Spiperone (NEN, specific activity ˜70 Ci/mmol) was diluted in assay buffer at a concentration of 2 nmol/L. Prepared radioligand (50 μl), along with 50 μl of either the 10% DMSO control, Butaclamol (10-6 mol/l final concentration), or compound of interest, was then incubated (30 min, 37° C.) with 400 μl of the prepared membrane solution. Membrane-bound activity was filtered through a Packard Filtermate harvester onto GF/B Unifilterplates and washed with ice-cold Tris-HCl buffer (50 mM; pH 7.7; 6×0.5 ml). Filters were allowed to dry before adding scintillation fluid and counting in a Topcount scintillation counter. Percentage specific bound and competition binding curves were calculated using S-Plus software (Insightful).

NET = target: T4, NET (Rattus norvegicus, UniProt Q9WTR4); test: In vitro determination of NET reuptake inhibition ([3H]Nixosetine binding, rat brain cortex membranes)
T4 construct: Cortex from rat brain was collected and homogenised; from tissue; host or cells: rat brain cortex membranes
T4 sequence (Q9WTR4 1-597): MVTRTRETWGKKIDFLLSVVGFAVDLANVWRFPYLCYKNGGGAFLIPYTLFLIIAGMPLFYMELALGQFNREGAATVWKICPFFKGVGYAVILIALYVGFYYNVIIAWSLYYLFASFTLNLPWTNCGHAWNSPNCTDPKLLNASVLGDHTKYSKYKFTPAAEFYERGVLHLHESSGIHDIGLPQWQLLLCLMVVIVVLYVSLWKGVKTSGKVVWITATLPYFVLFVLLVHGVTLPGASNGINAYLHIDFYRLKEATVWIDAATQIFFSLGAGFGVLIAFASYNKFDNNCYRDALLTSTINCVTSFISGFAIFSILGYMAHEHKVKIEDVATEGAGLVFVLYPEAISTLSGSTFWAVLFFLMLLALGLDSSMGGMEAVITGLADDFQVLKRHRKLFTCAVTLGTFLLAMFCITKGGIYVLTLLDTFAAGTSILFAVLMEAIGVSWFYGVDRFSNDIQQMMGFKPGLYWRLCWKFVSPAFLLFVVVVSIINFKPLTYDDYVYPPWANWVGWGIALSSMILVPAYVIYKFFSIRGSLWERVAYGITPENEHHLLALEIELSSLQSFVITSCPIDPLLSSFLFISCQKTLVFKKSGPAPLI
Procedure: Cortex from rat brain was collected and homogenised using an Ultra-Turrax T25 and a Dual homogeniser in ice-cold homogenising buffer containing Tris, NaCl and KCl (50 mM, 120 mM and 5 mM, respectively, pH 7.4) prior to dilution to an appropriate protein concentration optimised for specific and non-specific binding. […] Membrane-bound activity was detected by filtration through a Packard Filtermate harvester onto GF/B Unifilterplates, washed with ice-cold Tris-HCl buffer, containing NaCl and KCl (50 mM, 120 mM and 4 mM; pH 7.4; 6×0.5 ml). Filters were allowed to dry for 24 h before adding scintillation fluid. Scintillation fluid was allowed to saturate filters for 24 h before counting in a Topcount scintillation counter. Percentage specific bound and competition binding curves were calculated using S-Plus software (Insightful).

[4] = human cloned 5-HT2A receptor in L929 cells, [125I]R91150
[5] = human cloned 5-HT2C receptor in CHO cells, [3H]mesulergine

Structure (SMILES)	IC50 [1, 4]	IC50 [2, 5]	IC50 [3]	pIC50 (NET)	other results
COCC(=O)N1[C@@H](CN(C)C)C[C@@H]2c3ccccc3Cc3ccc(F)cc3[C@H]21 [compound 10, [(2R,3aR,12bS)-11-fluoro-1-(methoxyacetyl)-1,2,3,3a,8,12b-hexahydrodibenzo[3 ,4:6,7]cyclohepta[1,2-b]pyrrol-2-yl]-N,N-dimethylmethanamine]	0.692 µM	0.427 µM	> 1 µM	5.32	–
CN1C[C@H]2C[C@@H]3c4ccccc4Cc4ccc(F)cc4[C@H]3N2C1=O [compound 7]	> 1 µM	> 1 µM	> 1 µM	6.05	–
CN1CC(=O)N2[C@H](C[C@@H]3c4ccccc4Cc4ccc(F)cc4[C@H]32)C1 [compound 13, (5aS,14bR,15aR)-7-fluoro-2-methyl-1,2,3,5a,10,14b,15,15a-octahydro-4H-dibenzo-[3′,4′:6′,7′]cyclohepta[1′,2′:4,5]pyrrolo[1,2-a]pyrazin-4-one]	–	–	–	–	pIC50 [1]: 7.06; NET Reuptake Inhibition (NET): <5
CN(C)C[C@H]1C[C@@H]2c3ccccc3Cc3ccc(F)cc3[C@H]2[S@+]1[O-] [compound 28, [(2R,3aR,12bS)-11-fluoro-1-oxido-3,3a,8,12b-tetrahydro-2H-dibenzo[3,4:6,7]cyclohepta[1,2-b]thien-2-yl]-N,N-dimethylmethanamine]	7.76 µM	1.78 µM	–	6.84	–
CN(CCO)C[C@H]1C[C@@H]2c3ccccc3Cc3ccc(F)cc3[C@H]2N1 [43b, 2-[{[(2R,3aR,12bS)-11-fluoro-1,2,3,3a,8,12b-exahydrodibenzo[3,4:6,7]cyclohepta[1,2-b]pyrrol-2-yl]methyl}(methyl)amino]-ethanol]	–	–	–	–	h-5HT2A [1, 4]: 7.17; h-5HT2C [2, 5]: 7.05; h-D2L [3]: 6.36
OC1CCN(C[C@H]2C[C@@H]3c4ccccc4Oc4ccc(F)cc4[C@H]3N2)C1 (stereo partly drawn) [compound 20, 1-{[(2R,3aR,12bS)-11-fluoro-2,3,3a,12b-tetrahydro-1H-dibenzo[2,3:6,7]oxepino[4,5-b]pyrrol-2-yl]methyl}-3-pyrrolidinol]	–	0.11 µM	0.355 µM	6.38	–
OCCN1CCN(C[C@H]2C[C@@H]3c4ccccc4Oc4ccc(F)cc4[C@H]3N2)CC1 [compound 19, 2-(4-{[(2R,3aR,12bS)-11-fluoro-2,3,3a,12b-tetrahydro-1H-dibenzo[2,3 :6,7]oxepino-[4,5-b]pyrrol-2-yl]methyl}-1-piperazinyl)ethanol]	–	4.27 µM	0.112 µM	< 5.00	–
O=C1CNC[C@H]2C[C@@H]3c4ccccc4Cc4ccc(F)cc4[C@H]3N12 [compound 12, (5aS,14bR,15aR)-7-fluoro-1,2,3,5a,10,14b,15,15a-octahydro-4H-dibenzo[3′,4′:6′,7′]-cyclohepta[1′,2′:4,5]pyrrolo[1,2-a]pyrazin-4-one]	–	–	0.832 µM	5.46	pIC50 [2]: 7.23
CN[C@@H]1CO[C@@H]2c3cc(F)ccc3Cc3ccccc3[C@H]2C1 (relative stereo) [compound 35, (3S*,4aR*,13bS*)-12-fluoro-N-methyl-2,3,4,4a,9,13b-hexahydrodibenzo[3,4:6,7]-cyclohepta[1,2-b]pyran-3-amine]	–	2.63 µM	–	< 6.00	–
CN(C)C[C@@H]1C[C@@H]2c3ccccc3Cc3ccc(F)cc3[C@H]2[S@+]1[O-] [compound 25, [(2S,3aR,12bS)-11-fluoro-1-oxido-3,3a,8,12b-tetrahydro-2H-dibenzo[3,4:6,7]cyclohepta[1,2-b]thien-2-yl]-N,N-dimethylmethanamine]	> 10 µM	2.24 µM	–	5.54	–
Fc1ccc2c(c1)[C@H]1N[C@@H](CN3CCOCC3)C[C@@H]1c1ccccc1C2 [compound 42, (2R,3aR,12bS)-11-fluoro-2-(4-morpholinylmethyl)-1,2,3,3a,8,12b-hexahydrodibenzo-[3,4:6,7]cyclohepta[1,2-b]pyrrole]	0.631 µM	0.55 µM	–	5.26	–
COC(=O)N1[C@@H](CN(C)C)CC[C@@H]2c3ccccc3Cc3ccc(F)cc3[C@H]21 [compound 45, Methyl (2R,4aR,13bS)-2-[(dimethylamino)methyl]-12-fluoro-2,3,4,4a,9,13b-hexahydro-1H-dibenzo[3,4:6,7]cyclohepta[1,2-b]pyridine-1-carboxylate]	–	2.24 µM	> 10 µM	6.10	–
CN(C)C[C@H]1C[C@@H]2c3ccccc3Cc3ccc(F)cc3[C@H]2N1C [compound 5, [(2R,3aR,12bS)-11-fluoro-1-methyl-1,2,3,3a,8,12b-hexahydrodibenzo[3,4:6,7]cyclohepta[1,2-b]pyrrol-2-yl]-N,N-dimethylmethanamine]	0.0275 µM	0.00537 µM	0.132 µM	–	–
CN(C)CC1CO[C@@H]2c3cc(F)ccc3Cc3ccccc3[C@@H]12 (mixture of isomers) [compound 47, [(3aR,12bS)-11-fluoro-3,3a,8,12b-tetrahydro-2H-dibenzo[3,4:6,7]cyclohepta[1,2-b]-furan-3-yl]-N,N-dimethylmethanamine]	3.8 µM	1.58 µM	–	7.96	–
CN(C)CC1CO[C@H]2c3cc(F)ccc3Cc3ccccc3[C@@H]12 (mixture of isomers) [compound 48, [(3aR,12bR)-11-fluoro-3,3a,8,12b-tetrahydro-2H-dibenzo[3,4:6,7]cyclohepta[1,2-b]-furan-3-yl]-N,N-dimethylmethanamine]	6.17 µM	3.02 µM	–	6.65	–
OCCN1CCN(C[C@H]2C[C@@H]3c4ccccc4Cc4ccc(F)cc4[C@H]3N2)CC1 [43a, 2-(4-{[(2R,3aR,12bS)-11-fluoro-1,2,3,3a,8,12b-hexahydrodibenzo[3,4:6,7]cyclohepta-[1,2-b]pyrrol-2-yl]methyl}-1-piperazinyl)ethanol]	0.427 µM	0.407 µM	–	< 5.00	–
CN(C)C[C@@H]1C[C@@H]2c3ccccc3Cc3ccc(F)cc3[C@H]2S1(=O)=O [compound 22, [(2S,3aR,12bS)-11-fluoro-1,1-dioxido-3,3a,8, 12b-tetrahydro-2H-dibenzo[3,4:6,7]-cyclohepta[1,2-b]thien-2-yl]-N,N-dimethylmethanamine]	8.51 µM	1.35 µM	–	5.32	–
